The test system of one test is TaOR2 + TaORco. In words: two-electrode voltage clamp, Xenopus oocytes. The test is classed as cell-based, Toxorhynchites amboinensis. The note with it: agonist; co-expressed with TaORco; -80 mV; 10^-10 to 10^-4 M.
In a further test the test system is TaOR10 + TaORco. The experiment in a line: two-electrode voltage clamp, Xenopus oocytes. Conditions: agonist; co-expressed with TaORco; -80 mV; 10^-10 to 10^-4 M. The format is cell-based, Toxorhynchites amboinensis. For orientation: Two-electrode voltage clamp is typically applied to oocytes expressing channels or transporters.

The structures appear in SMILES notation.

In the case of `c1ccc2[nH]ccc2c1` [indole], the EC50 (as a rule, the midpoint of the concentration-response curve) turned out to be 88 nM in the test on TaOR2 + TaORco and 9160 nM with TaOR10 + TaORco.

With `Cc1c[nH]c2ccccc12` [skatole], the EC50 in the test on TaOR2 + TaORco came out at 1380 nM; in the test with TaOR10 + TaORco, 87 nM.
